Measurements taken from patent US20230085307A1, “PYRIDAZINONE COMPOUND AND HERBICIDE” (NISSAN CHEMICAL CORPORATION, priority 2019, published 2023).

Tested on: persian speedwell
Experiment: Test Example 4: herbicidal effect by soil treatment (Table 19, symbol R)
Format: in vivo, Persian speedwell (Veronica persica)
Settings: 320 g/ha
In short: (§1)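 Three weeks of greenhouse growth at 25° C. to 30° C. followed a uniform surface spray of water-diluted emulsion at a predetermined herbicide amount. Seeds had been sown beforehand under about 1.5 cm of sterilized diluvial soil. Grading followed criteria set out in an earlier test.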

Row | Compound | herbicidal effect rating, R: persian speedwell
1 | Cc1nn(C)c(=O)c(-c2c(-c3ccc(OCC(F)(F)F)cc3)sc3ccc(F)cc23)c1O [2-049] | 4 (Herbicidal rate of 70% or more and less than 90%)
2 | C=CCOc1ccc(-c2sc3ccc(F)cc3c2-c2c(O)c(C)nn(C)c2=O)cc1 [2-051] | 4 (Herbicidal rate of 70% or more and less than 90%)

Tested on: chickweed
Experiment: Test Example 5: herbicidal effect by foliage application, plastic box (Table 20, symbol P)
Format: in vivo, common chickweed (Stellaria media)
Settings: foliage application, 320 g/ha, evaluated three weeks after application
In short: (§2)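 Plants sown in sterilized diluvial soil and grown 14 days in a greenhouse at 25° C to 30° C, then sprayed on the foliage with the compound's emulsion diluted in water to a predetermined herbicide amount. Injury to weeds and crops scored three weeks after application on a visual rating scale.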

Row | Compound | herbicidal effect on P: chickweed
3 | Cc1nn(C)c(=O)c(-c2c(-c3ccc(OCC(F)(F)F)cc3)sc3ccc(F)cc23)c1O [2-049] | 5 (Herbicidal rate of 90% or more (almost completely withered))
4 | C=CCOc1ccc(-c2sc3ccc(F)cc3c2-c2c(O)c(C)nn(C)c2=O)cc1 [2-051] | 5 (Herbicidal rate of 90% or more (almost completely withered))

Tested on: velvetleaf
Experiment: Test Example 4: herbicidal effect by soil treatment (Table 19, symbol M)
Format: in vivo, velvetleaf (Abutilon theophrasti)
Settings: 320 g/ha
In short: as §1

Row | Compound | herbicidal effect rating, M: velvetleaf
5 | Cc1nn(C)c(=O)c(-c2c(-c3ccc(OCC(F)(F)F)cc3)sc3ccc(F)cc23)c1O [2-049] | 5 (Herbicidal rate of 90% or more (almost completely withered))
6 | C=CCOc1ccc(-c2sc3ccc(F)cc3c2-c2c(O)c(C)nn(C)c2=O)cc1 [2-051] | 3 (Herbicidal rate of 40% or more and less than 70%)

Tested on: Italian ryegrass
Experiment: Test Example 5: herbicidal effect by foliage application, plastic box (Table 20, symbol K)
Format: in vivo, Italian ryegrass (Lolium multiflorum)
Settings: foliage application, 320 g/ha, evaluated three weeks after application
In short: as §2

Row | Compound | herbicidal effect on K: Italian ryegrass
7 | Cc1nn(C)c(=O)c(-c2c(-c3ccc(OCC(F)(F)F)cc3)sc3ccc(F)cc23)c1O [2-049] | 5 (Herbicidal rate of 90% or more (almost completely withered))
8 | C=CCOc1ccc(-c2sc3ccc(F)cc3c2-c2c(O)c(C)nn(C)c2=O)cc1 [2-051] | 4 (Herbicidal rate of 70% or more and less than 90%)

Tested on: velvetleaf
Experiment: Test Example 5: herbicidal effect by foliage application, plastic box (Table 20, symbol M)
Format: in vivo, velvetleaf (Abutilon theophrasti)
Settings: foliage application, 320 g/ha, evaluated three weeks after application
In short: as §2

Row | Compound | herbicidal effect on M: velvetleaf
9 | Cc1nn(C)c(=O)c(-c2c(-c3ccc(OCC(F)(F)F)cc3)sc3ccc(F)cc23)c1O [2-049] | 5 (Herbicidal rate of 90% or more (almost completely withered))
10 | C=CCOc1ccc(-c2sc3ccc(F)cc3c2-c2c(O)c(C)nn(C)c2=O)cc1 [2-051] | 4 (Herbicidal rate of 70% or more and less than 90%)

Tested on: lambsquarters
Experiment: Test Example 5: herbicidal effect by foliage application, plastic box (Table 20, symbol O)
Format: in vivo, lambsquarters (Chenopodium album)
Settings: foliage application, 320 g/ha, evaluated three weeks after application
In short: as §2

Row | Compound | herbicidal effect on O: lambsquarters
11 | Cc1nn(C)c(=O)c(-c2c(-c3ccc(OCC(F)(F)F)cc3)sc3ccc(F)cc23)c1O [2-049] | 5 (Herbicidal rate of 90% or more (almost completely withered))
12 | C=CCOc1ccc(-c2sc3ccc(F)cc3c2-c2c(O)c(C)nn(C)c2=O)cc1 [2-051] | 5 (Herbicidal rate of 90% or more (almost completely withered))

Tested on: blackgrass
Experiment: Test Example 4: herbicidal effect by soil treatment (Table 19, symbol J)
Format: in vivo, blackgrass (Alopecurus myosuroides)
Settings: 320 g/ha
In short: as §1

Row | Compound | herbicidal effect rating, J: blackgrass
13 | Cc1nn(C)c(=O)c(-c2c(-c3ccc(OCC(F)(F)F)cc3)sc3ccc(F)cc23)c1O [2-049] | 4 (Herbicidal rate of 70% or more and less than 90%)
14 | C=CCOc1ccc(-c2sc3ccc(F)cc3c2-c2c(O)c(C)nn(C)c2=O)cc1 [2-051] | 0 (Herbicidal rate of 5% or less (almost no effect))

Tested on: wild oat
Experiment: Test Example 4: herbicidal effect by soil treatment (Table 19, symbol I)
Format: in vivo, wild oat (Avena fatua)
Settings: 320 g/ha
In short: as §1

Row | Compound | herbicidal effect rating, I: wild oat
15 | Cc1nn(C)c(=O)c(-c2c(-c3ccc(OCC(F)(F)F)cc3)sc3ccc(F)cc23)c1O [2-049] | 0 (Herbicidal rate of 5% or less (almost no effect))
16 | C=CCOc1ccc(-c2sc3ccc(F)cc3c2-c2c(O)c(C)nn(C)c2=O)cc1 [2-051] | 0 (Herbicidal rate of 5% or less (almost no effect))

Tested on: Japanese bulrush
Experiment: Test Example 2: herbicidal activity, application during weed generation under submerged conditions (Table 17, symbol B)
Format: in vivo, Japanese bulrush (Schoenoplectus juncoides)
Settings: AAH 320 g/ha; application during weed generation, submerged conditions
In short: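 Steps: fill Wagner pots with alluvial soil; add water to give 4 cm depth; sow the species mixed; grow under glass at 25–30° C.; at 1–2 leaves apply water-diluted emulsion formulation to the water surface at a fixed herbicide amount; score after 3 weeks.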

Row | Compound | herbicidal effect rating, B: Japanese bulrush
17 | Cc1nn(C)c(=O)c(-c2c(-c3ccc(OCC(F)(F)F)cc3)sc3ccc(F)cc23)c1O [2-049] | 2 (Herbicidal rate of 20% or more and less than 40%)
18 | C=CCOc1ccc(-c2sc3ccc(F)cc3c2-c2c(O)c(C)nn(C)c2=O)cc1 [2-051] | 3 (Herbicidal rate of 40% or more and less than 70%)

Tested on: windgrass
Experiment: Test Example 5: herbicidal effect by foliage application, plastic box (Table 20, symbol L)
Format: in vivo, windgrass (Apera spica-venti)
Settings: foliage application, 320 g/ha, evaluated three weeks after application
In short: as §2

Row | Compound | herbicidal effect on L: windgrass
19 | Cc1nn(C)c(=O)c(-c2c(-c3ccc(OCC(F)(F)F)cc3)sc3ccc(F)cc23)c1O [2-049] | 5 (Herbicidal rate of 90% or more (almost completely withered))
20 | C=CCOc1ccc(-c2sc3ccc(F)cc3c2-c2c(O)c(C)nn(C)c2=O)cc1 [2-051] | 5 (Herbicidal rate of 90% or more (almost completely withered))

Tested on: green foxtail
Experiment: Test Example 4: herbicidal effect by soil treatment (Table 19, symbol G)
Format: in vivo, green foxtail (Setaria viridis)
Settings: 320 g/ha
In short: as §1

Row | Compound | herbicidal effect rating, G: green foxtail
21 | Cc1nn(C)c(=O)c(-c2c(-c3ccc(OCC(F)(F)F)cc3)sc3ccc(F)cc23)c1O [2-049] | 5 (Herbicidal rate of 90% or more (almost completely withered))
22 | C=CCOc1ccc(-c2sc3ccc(F)cc3c2-c2c(O)c(C)nn(C)c2=O)cc1 [2-051] | 5 (Herbicidal rate of 90% or more (almost completely withered))

Tested on: chickweed
Experiment: Test Example 4: herbicidal effect by soil treatment (Table 19, symbol P)
Format: in vivo, common chickweed (Stellaria media)
Settings: 320 g/ha
In short: as §1

Row | Compound | herbicidal effect rating, P: chickweed
23 | Cc1nn(C)c(=O)c(-c2c(-c3ccc(OCC(F)(F)F)cc3)sc3ccc(F)cc23)c1O [2-049] | 5 (Herbicidal rate of 90% or more (almost completely withered))
24 | C=CCOc1ccc(-c2sc3ccc(F)cc3c2-c2c(O)c(C)nn(C)c2=O)cc1 [2-051] | 1 (Herbicidal rate of 5% or more and less than 20%)

Tested on: redroot pigweed
Experiment: Test Example 5: herbicidal effect by foliage application, plastic box (Table 20, symbol N)
Format: in vivo, redroot pigweed (Amaranthus retroflexus)
Settings: foliage application, 320 g/ha, evaluated three weeks after application
In short: as §2

Row | Compound | herbicidal effect on N: redroot pigweed
25 | Cc1nn(C)c(=O)c(-c2c(-c3ccc(OCC(F)(F)F)cc3)sc3ccc(F)cc23)c1O [2-049] | 5 (Herbicidal rate of 90% or more (almost completely withered))
26 | C=CCOc1ccc(-c2sc3ccc(F)cc3c2-c2c(O)c(C)nn(C)c2=O)cc1 [2-051] | 5 (Herbicidal rate of 90% or more (almost completely withered))

Tested on: lambsquarters
Experiment: Test Example 4: herbicidal effect by soil treatment (Table 19, symbol O)
Format: in vivo, lambsquarters (Chenopodium album)
Settings: 320 g/ha
In short: as §1

Row | Compound | herbicidal effect rating, O: lambsquarters
27 | Cc1nn(C)c(=O)c(-c2c(-c3ccc(OCC(F)(F)F)cc3)sc3ccc(F)cc23)c1O [2-049] | 5 (Herbicidal rate of 90% or more (almost completely withered))
28 | C=CCOc1ccc(-c2sc3ccc(F)cc3c2-c2c(O)c(C)nn(C)c2=O)cc1 [2-051] | 5 (Herbicidal rate of 90% or more (almost completely withered))

Tested on: southern crabgrass
Experiment: Test Example 4: herbicidal effect by soil treatment (Table 19, symbol F)
Format: in vivo, southern crabgrass (Digitaria ciliaris)
Settings: 320 g/ha
In short: as §1

Row | Compound | herbicidal effect rating, F: southern crabgrass
29 | Cc1nn(C)c(=O)c(-c2c(-c3ccc(OCC(F)(F)F)cc3)sc3ccc(F)cc23)c1O [2-049] | 4 (Herbicidal rate of 70% or more and less than 90%)
30 | C=CCOc1ccc(-c2sc3ccc(F)cc3c2-c2c(O)c(C)nn(C)c2=O)cc1 [2-051] | 5 (Herbicidal rate of 90% or more (almost completely withered))

Tested on: barnyard grass
Experiment: Test Example 4: herbicidal effect by soil treatment (Table 19, symbol H)
Format: in vivo, barnyard grass (Echinochloa crus-galli)
Settings: 320 g/ha
In short: as §1

Row | Compound | herbicidal effect rating, H: barnyard grass
31 | Cc1nn(C)c(=O)c(-c2c(-c3ccc(OCC(F)(F)F)cc3)sc3ccc(F)cc23)c1O [2-049] | 5 (Herbicidal rate of 90% or more (almost completely withered))
32 | C=CCOc1ccc(-c2sc3ccc(F)cc3c2-c2c(O)c(C)nn(C)c2=O)cc1 [2-051] | 4 (Herbicidal rate of 70% or more and less than 90%)

Tested on: oval-leafed pondweed
Experiment: Test Example 1: herbicidal activity, application before weed generation under submerged conditions (Table 16, symbol C)
Format: in vivo, oval-leafed pondweed (Monochoria vaginalis)
Settings: 320 g/ha applied herbicide
In short: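 Alluvial soil was flooded to 4 cm depth, weed seeds were sown mixed and 2.5-leaf rice seedlings were transplanted. On sowing day, the compound's emulsion, diluted in water to a set dose, was applied to the water surface. Plants grew at 25–30 °C and were scored 0–5 after three weeks.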

Row | Compound | Herbicidal effect on C: oval-leafed pondweed (grade 0-5)
33 | Cc1nn(C)c(=O)c(-c2c(-c3ccc(OCC(F)(F)F)cc3)sc3ccc(F)cc23)c1O [2-049] | 3 (Herbicidal rate of 40% or more and less than 70%)
34 | C=CCOc1ccc(-c2sc3ccc(F)cc3c2-c2c(O)c(C)nn(C)c2=O)cc1 [2-051] | 4 (Herbicidal rate of 70% or more and less than 90%)
